Measurements from ChEMBL document CHEMBL1909046, “DrugMatrix in vitro pharmacology data”.

What was measured:
[1] = target: T1, Alpha-1D adrenergic receptor (Homo sapiens, UniProt P25100); format: cell membranes, HEK293, Membrane; details: hek293; also: in other assays of this panel Not Active means under 50% inhibition at 10 µM
T1 sequence (P25100 whole entry): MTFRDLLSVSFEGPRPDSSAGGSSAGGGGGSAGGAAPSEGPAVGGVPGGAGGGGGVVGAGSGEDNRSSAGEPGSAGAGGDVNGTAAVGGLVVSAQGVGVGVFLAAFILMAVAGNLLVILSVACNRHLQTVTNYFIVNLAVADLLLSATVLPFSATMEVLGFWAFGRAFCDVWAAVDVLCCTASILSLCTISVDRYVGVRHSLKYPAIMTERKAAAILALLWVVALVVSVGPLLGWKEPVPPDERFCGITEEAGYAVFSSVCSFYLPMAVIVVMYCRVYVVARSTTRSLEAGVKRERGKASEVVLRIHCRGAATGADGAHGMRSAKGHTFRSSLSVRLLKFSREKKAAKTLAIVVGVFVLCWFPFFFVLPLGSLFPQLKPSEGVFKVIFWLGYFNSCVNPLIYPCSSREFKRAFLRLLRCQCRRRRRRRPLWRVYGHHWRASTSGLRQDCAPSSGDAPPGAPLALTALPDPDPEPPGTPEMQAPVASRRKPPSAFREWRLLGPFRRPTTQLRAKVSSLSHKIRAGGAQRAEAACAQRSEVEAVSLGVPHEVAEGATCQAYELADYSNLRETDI

[2] = target: Beta-3 adrenergic receptor (Homo sapiens, UniProt P13945); assay: DRUGMATRIX: Adrenergic beta3 radioligand binding (ligand: [125I] Cyanopindolol); format: cell membranes, HEK293, Membrane; details: hek293; Not Active = under 50% inhibition at 10 µM
[3] = DRUGMATRIX: GABAA, Muscimol, Central radioligand binding (ligand: [3H] Muscimol); format: cell membranes, Rattus norvegicus, Wistar, Brain, Membrane; details: Not Active = under 50% inhibition at 10 µM
[4] = target: T2, Muscarinic acetylcholine receptor M2 (Homo sapiens, UniProt P08172); format: cell membranes, CHO-K1, Membrane; also: in other assays of this panel Not Active means under 50% inhibition at 10 µM
T2 sequence (P08172 whole entry): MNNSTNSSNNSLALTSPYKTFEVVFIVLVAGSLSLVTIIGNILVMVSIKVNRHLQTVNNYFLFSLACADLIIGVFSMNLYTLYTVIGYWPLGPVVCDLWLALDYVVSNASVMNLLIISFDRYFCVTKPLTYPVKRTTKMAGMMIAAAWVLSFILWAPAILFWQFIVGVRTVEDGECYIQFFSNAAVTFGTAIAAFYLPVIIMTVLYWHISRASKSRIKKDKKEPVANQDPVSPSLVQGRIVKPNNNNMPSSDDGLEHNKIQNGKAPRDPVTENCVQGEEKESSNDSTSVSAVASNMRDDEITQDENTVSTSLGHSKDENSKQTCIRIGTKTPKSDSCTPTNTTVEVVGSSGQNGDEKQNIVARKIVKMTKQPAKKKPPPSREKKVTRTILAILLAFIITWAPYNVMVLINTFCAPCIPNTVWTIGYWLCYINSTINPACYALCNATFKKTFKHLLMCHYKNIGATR

[5] = target: Platelet-activating factor receptor (Homo sapiens, UniProt P25105); format: tissue-based; also: in other assays of this panel Not Active means under 50% inhibition at 10 µM
Neutrophil elastase = target: T3, Neutrophil elastase (Homo sapiens, UniProt P08246); format: tissue-based;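 also: inhibition of neutrophil elastase enzyme activity, measured with a p-nitroanilide-linked peptide substrate; in other assays of this panel Not Active means under 50% inhibition at 10 µM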
T3 sequence (P08246 whole entry): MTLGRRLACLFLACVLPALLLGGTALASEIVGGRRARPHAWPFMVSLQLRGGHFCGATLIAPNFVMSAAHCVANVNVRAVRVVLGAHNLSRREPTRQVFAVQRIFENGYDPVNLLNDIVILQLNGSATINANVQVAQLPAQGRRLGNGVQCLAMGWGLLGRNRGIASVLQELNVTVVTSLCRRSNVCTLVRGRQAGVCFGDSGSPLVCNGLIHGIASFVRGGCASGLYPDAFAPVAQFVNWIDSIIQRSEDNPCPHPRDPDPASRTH

Chain of Beta-3 adrenergic receptor (P13945 whole entry): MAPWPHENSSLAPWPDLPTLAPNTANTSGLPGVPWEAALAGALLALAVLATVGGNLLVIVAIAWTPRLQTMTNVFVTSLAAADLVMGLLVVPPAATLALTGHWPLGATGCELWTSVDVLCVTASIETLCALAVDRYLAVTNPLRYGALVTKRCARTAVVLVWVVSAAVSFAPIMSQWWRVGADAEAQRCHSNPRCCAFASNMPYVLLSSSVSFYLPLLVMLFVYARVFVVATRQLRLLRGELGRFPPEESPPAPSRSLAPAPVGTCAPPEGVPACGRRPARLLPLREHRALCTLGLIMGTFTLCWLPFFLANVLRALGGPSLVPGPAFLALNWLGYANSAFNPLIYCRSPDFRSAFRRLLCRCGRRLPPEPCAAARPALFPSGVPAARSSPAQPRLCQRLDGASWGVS
Chain of Platelet-activating factor receptor (P25105 whole entry): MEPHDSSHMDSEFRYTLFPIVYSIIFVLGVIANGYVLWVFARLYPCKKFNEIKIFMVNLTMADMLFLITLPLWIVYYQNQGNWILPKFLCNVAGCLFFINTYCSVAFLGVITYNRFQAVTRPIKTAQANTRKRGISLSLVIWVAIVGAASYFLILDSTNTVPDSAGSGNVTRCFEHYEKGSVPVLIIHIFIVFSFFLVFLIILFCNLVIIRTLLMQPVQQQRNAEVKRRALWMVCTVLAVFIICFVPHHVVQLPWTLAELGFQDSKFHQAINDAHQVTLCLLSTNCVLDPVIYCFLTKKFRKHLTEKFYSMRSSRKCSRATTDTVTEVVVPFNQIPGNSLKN

With `CC[C@H](C)[C@@H](CO[C@@H](Cc1ccccc1)C(=O)N[C@@H](CCS(C)(=O)=O)C(=O)OC(C)C)NC[C@@H](N)CS` as the compound, how does the IC50 [1] read?
The IC50 was “Not Active”.

What about the IC50 [2] of the same compound?
The IC50 was “Not Active”.

And the IC50 [3]?
Its IC50 is “Not Active”.

And the Ki [3]?
The Ki was “Not Active”.

What about the IC50 ([4]; read-out: IC50) of the same compound?
The IC50 was 3570 nM.

And the Ki ([4]; read-out: Ki)?
Its Ki is 1270 nM.

What about the IC50 [5] of the same compound?
Its IC50 is “Not Active”.

What about the IC50 (Neutrophil elastase) of the same compound?
Its IC50 is “Not Active”.

Which results are given for `O=C(c1ccccc1)c1ccc2n1CCC2C(=O)O` (stereo not given) [KETOROLAC]?
IC50 [1]: Not Active; IC50 [2]: Not Active; IC50 [3]: Not Active; Ki [3]: Not Active; IC50 ([4]; cho-k1): Not Active; IC50 [5]: Not Active; IC50 (Neutrophil elastase): Not Active

With `O=C(O)c1cc(/N=N/c2ccc(S(=O)(=O)Nc3ccccn3)cc2)ccc1O` [SULFASALAZINE] as the compound, how does the IC50 [1] read?
Its IC50 is “Not Active”.

And the IC50 [2]?
Its IC50 is “Not Active”.

And the IC50 [3]?
Its IC50 is “Not Active”.

And the Ki [3]?
The Ki was “Not Active”.

And the IC50 ([4]; cho-k1)?
Its IC50 is “Not Active”.

What about the IC50 [5] of the same compound?
The IC50 was “Not Active”.

What about the IC50 (Neutrophil elastase) of the same compound?
The IC50 was “Not Active”.

For `CC1(C)[C@H](C(=O)O)N2C(=O)C[C@H]2S1(=O)=O` [SULBACTAM], which IC50 [1] is on record?
Its IC50 is “Not Active”.

And the IC50 [2]?
Its IC50 is “Not Active”.

What about the IC50 [3] of the same compound?
Its IC50 is “Not Active”.

And the Ki [3]?
The Ki was “Not Active”.

And the IC50 ([4]; cho-k1)?
The IC50 was “Not Active”.

What about the IC50 [5] of the same compound?
Its IC50 is “Not Active”.

What about the IC50 (Neutrophil elastase) of the same compound?
The IC50 was “Not Active”.

With `C1CCN2C[C@@H]3C[C@@H](CN4CCCC[C@@H]34)[C@H]2C1` [SPARTEINE] as the compound, how does the IC50 [1] read?
Its IC50 is “Not Active”.

And the IC50 [2]?
Its IC50 is “Not Active”.

And the IC50 [3]?
Its IC50 is “Not Active”.

What about the Ki [3] of the same compound?
Its Ki is “Not Active”.

And the IC50 ([4]; cho-k1)?
Its IC50 is “Not Active”.

What about the IC50 [5] of the same compound?
Its IC50 is “Not Active”.

What about the IC50 (Neutrophil elastase) of the same compound?
The IC50 was “Not Active”.

For LEAD(IV) ACETATE, which IC50 [1] is on record?
Its IC50 is “Not Active”.

And the Ki [1]?
The Ki was “Not Active”.

What about the IC50 [2] of the same compound?
Its IC50 is “Not Active”.

What about the Ki [2] of the same compound?
The Ki was “Not Active”.

And the IC50 [3]?
Its IC50 is “Not Active”.

What about the Ki [3] of the same compound?
Its Ki is “Not Active”.

What about the IC50 ([4]; cho-k1) of the same compound?
The IC50 was “Not Active”.

And the Ki ([4]; cho-k1)?
The Ki was “Not Active”.

And the IC50 [5]?
The IC50 was “Not Active”.

And the Ki [5]?
Its Ki is “Not Active”.

And the IC50 (Neutrophil elastase)?
Its IC50 is “Not Active”.

And the Ki (Neutrophil elastase)?
The Ki was “Not Active”.

What does the source list for `CC(O)C(=O)O` (stereo not given) [LACTIC ACID]?
IC50 [1]: Not Active; IC50 [2]: Not Active; IC50 [3]: Not Active; Ki [3]: Not Active; IC50 ([4]; cho-k1): Not Active; IC50 [5]: Not Active; IC50 (Neutrophil elastase): Not Active
